Laboratory results taken from patent publication US10596153B2, “Antimicrobial agents and the method of synthesizing the antimicrobial agents” (Arkansas State University—Jonesboro, priority 2016, dated 2020).
Like-named read-outs stand apart in the source and are kept apart here.

How the values were obtained:
Test in all cases: Disk diffusion assay, zone of inhibition
Assay type in all cases: cell-based
[1] = test system: Enterobacter aerogenes ATCC 13048; conditions: N-arylamine derivatives; 10 μL of 0.1 M in DMSO on 6 mm disk; 20-24 hours at 35° C.; NA=No activity
Method: (§1) Bacteria were streaked onto Tryptic Soy Agar plates and incubated overnight at 35° C. Bacteria were suspended in sterile saline to the turbidity of a 0.5 McFarland standard then swabbed onto Mueller Hinton Agar plates to create lawns. Test compounds were dissolved in DMSO at a concentration of 0.1 M, and 10 μL of each were pipetted onto 6 mm diameter glass fiber disks placed on the lawns. Plates were incubated for 20-24 hours at 35° C. after which zones of inhibition (diameters in mm) were measured for each test compound.

[2] = test system: Pseudomonas aeruginosa ATCC 27853; conditions: N-arylamine derivatives; 10 μL of 0.1 M in DMSO on 6 mm disk; 20-24 hours at 35° C.; NA=No activity
Method: as §1

[3] = test system: Bacillus subtilis ATCC 6633
Method: as §1

[4] = test system: Staphylococcus aureus ATCC 25923
Method: as §1

[5] = ATCC6633, read-out: Zone of inhibition in mm, B s, azomethines, 10 μL of 0.1 M in DMSO on 6 mm disk, 20-24 hours at 35° C., NA=No activity
[6] = ATCC25923, read-out: Zone of inhibition in mm, S a
[7] = ATCC6633, read-out: Zone of inhibition in mm, B s, N-arylamine derivatives, 10 μL of 0.1 M in DMSO on 6 mm disk, 20-24 hours at 35° C., NA=No activity
[8] = ATCC6633, N-arylamine derivatives, 10 μL of 0.1 M in DMSO on 6 mm disk, 20-24 hours at 35° C., NA=No activity, read-out: Zone of inhibition in mm, B s
[9] = ATCC6633, azomethines, 10 μL of 0.1 M in DMSO on 6 mm disk, 20-24 hours at 35° C., NA=No activity, read-out: Zone of inhibition in mm, B s
[10] = ATCC25923, N-arylamine derivatives, 10 μL of 0.1 M in DMSO on 6 mm disk, 20-24 hours at 35° C., NA=No activity, read-out: Zone of inhibition in mm, S a

Compound	zone of inhibition at 100000 µM [3, 5] [mm]	zone of inhibition at 100000 µM [4, 6] [mm]	zone of inhibition at 100000 µM [3, 7] [mm]	zone of inhibition at 100000 µM [3, 8] [mm]	zone of inhibition at 100000 µM [3, 9] [mm]	zone of inhibition at 100000 µM [4, 10] [mm]	further results
O=C(N[C@H](CO)[C@H](O)c1ccc([N+](=O)[O-])cc1)C(Cl)Cl [Chloramphenicol]							Zone of inhibition in mm, E a [1]: 28 mm; Zone of inhibition in mm, P a [2]: 8 mm
Cc1ccccc1 [a]	8	20					
Cc1ccc(F)cc1 [b]	8	18	18				
Cc1ccc(Cl)cc1 [c]				18	9	18	
Cc1ccc(Br)cc1 [d]				8	8	9	
Cc1ccc(C)cc1 [e]	8	17	18				
Cc1ccc(C(C)(C)C)cc1 [f]				14	8	8	
COc1ccc(C)cc1 [g]	10	15	14				
Cc1ccc(Oc2ccccc2)cc1 [h]				12		11	
